Values of other authors, collected in patent US20040191345A1, “New formulations and use thereof” (priority 2003, published 2004).

Key:
[1] = at room temperature
[2] = n-octanol / phosphate buffer at pH 7.32

- pKa value: 9.87
- solubility in water [1]: about 11 mg/ml
- partition coefficient (Log P) [2]: 1.83
SMILES: Cc1ccc(O)c(C(CCN(C(C)C)C(C)C)c2ccccc2)c1 (stereo not drawn) [Tolterodine, N,N-diiso-propyl-3-(2-hydroxy-5-methylphenyl)-3-phenylpropanamine]
